Our source for the Efficacy in % values is patent US20120035165A1, “Use of fungicidal compound compositions for controlling certain rust fungi” (Bayer CropScience AG, priority 2008, published 2012).

The structures appear in SMILES notation.

The experiment concerns Phakopsora pachyrhizi. Put plainly: Phakopsora test (soybeans)/protective. As to conditions: protective spray on young soybean plants, inoculated 1 day after spraying, evaluated 10 days after inoculation. It counts as in vivo, Phakopsora pachyrhizi on soybeans. On the procedure:
Phakopsora Test (Soybeans)/Protective Solvent: 28.5 parts by weight of acetone Emulsifier: 1.5 parts by weight of polyoxyethylene alkyl phenyl ether To produce a suitable preparation of active compound, 1 part by weight of active compound or active compound combination is mixed with the stated amounts of solvent and emulsifier, and the concentrate is diluted with water to the desired concentration. To test for protective activity, young plants are sprayed with the preparation of active compound or active compound combination at the stated rate of application. After the spray coating has dried on, the plants are placed in a greenhouse at a temperature of approximately 23° C. and a relative atmospheric humidity of approximately 70%. 1 day after spraying, the plants are inoculated with an aqueous spore suspension of the causal agent of soybean rust (Phakopsora pachyrhizi). The plants are then placed in a greenhouse at approximately 20° C. and a relative atmospheric humidity of approximately 80%. The test is evaluated 10 days after the inoculation. 0% means an efficacy which corresponds to that of the control, while an efficacy of 100% means that no disease is observed.

In the case of `Cn1cc(C(=O)Nc2ccc(F)cc2-c2ccc(Cl)c(Cl)c2)c(C(F)F)n1` [(I-2) Bixafen, N-(3′,4′-dichloro-5-fluoro-1,1′-biphenyl-2-yl)-3-(difluoromethyl)-1-methyl-1H-pyrazole-4-carboxamide], the Efficacy in % (rate of application 10 ppm) was 50%.

In the case of `OC(Cc1ccccc1Cl)(Cn1nc[nH]c1=S)C1(Cl)CC1` (centres unmarked) [(III-1) Prothioconazole, Prothioconazole], the Efficacy in % (rate of application 0.5 ppm) is listed as 50%.
